Measured values: US7588885B2, “Use of biocistronic DNA constructs for identifying compounds that inhibit IRES-dependent translation” (Chung Yuan Christian University, priority 2004, dated 2009)
In brackets after ≈: the same amount, converted by molar mass.

Experiments:
IRES of HCV = experiment: Bicistronic pGS-HCV reporter assay (IRES of HCV); type: cell-based, HCV (hepatitis C virus); settings: data not shown
Protocol: (§1) Plasmid PGS-EMCV is constructed by inserting into the plasmid pTriEx-4 (obtained from Novagene) template sequences of two reporter genes (cistrons), i.e., β-galactosidase (β-gal), and secreted human placental alkaline phosphatase (SEAP), with a promoter upstream of the first cistron (i.e., β-gal) and an EMCV-IRES sequence downstream of it, between the first cistron and the second cistron (i.e., SEAP). Plasmid pGS-EV71 and pGS-HCV are prepared in similar manner except an EV71-IRES sequence or a HCV-IRES sequence was used to replace the EMCV-IRES sequence.
(§2) The kidney cells from African green monkey, i.e., Cos-1 cells, were transfected with the bicistronic DNA constructs prepared according to Example 1. The method of transfection is well known in the art. […]
(§3) Reporter proteins activities, i.e., secreted Human Alkaline Phosphatase (SEAP) and β-galactosidase (β-gal), were measured with BD Great EscApe SEAP Detection kit (Cat. No. K2041-1, available from Clontech) and Luminescent β-gal Detection kit (Cat. No. K2048-1, available from Clontech), respectively, according to the manufacturer's instruction.

IRES of EMCV = experiment: Bicistronic pGS-EMCV reporter assay in Cos-1 cells, SEAP activity (IRES-dependent translation); type: cell-based
Protocol: as §1
(§4) The kidney cells from African green monkey, i.e., Cos-1 cells, were transfected with the bicistronic DNA constructs prepared according to Example 1. The method of transfection is well known in the art. Briefly, a transfecting stock solution was prepared as follows: 1) solution A: 1 μg of the bicistronic DNA constructs of Example 1 was dissolved in serum free culturing medium, with its final volume adjusted to be 50 μl; 2) solution B: 2 μl of lipofectAMINE 2000 (obtained from Invitrogen) was mixed with 50 μl of serum free culturing medium; 3) mixed solution A with solution B. Cos-1 cells (0.5−2×10^5/well, 24 wells) were first incubated with 500 μl of the serum free culturing medium for a period of 20 min, and then 102 μl of the transfecting stock solution prepared above was added. The transfected cells were then return to culture environment (37°C., 5% CO2). After 12 hrs, the culturing medium were replaced by a medium containing fetal bovine serum and antibiotics, the transfected cells were continued to culture for another 12 hrs before used in the following compound screening procedure.
The candidate compounds prepared according to the methods described above were dissolved in PBS, with stock concentration to be 10 mg/ml. These stock solutions were then diluted to proper ranges according to various screening conditions required. […] Then, the identified tested compound can be used in preparation of a medicament for treating EV or EMCV infection.
as §3

EV-71 = EV-71 whole cell antiviral activity; type: cell-based; settings: Enterovirus A, EV71
[1] = test system: CAP-dependent translation; experiment: Bicistronic pGS-EV71 reporter assay in Cos-1 cells, β-gal activity (CAP-dependent translation); type: cell-based, African green monkey
Protocol: as §1, §2, §3

[2] = test system: CAP-dependent translation; experiment: Bicistronic pGS-EMCV reporter assay in Cos-1 cells, β-gal activity (CAP-dependent translation); type: cell-based, African green monkey
Protocol: as §1, §2, §3

IRES of EV71 = experiment: cells; type: cell-based; settings: for selective inhibition on IRES-dependent translation without affecting CAP-dependent translation (screening, FIG. 2): Cos-1 cells transfected with EV-71 IRES construct, amantadine 0.1 mg/ml, IFN-α 10 units, stavudine 0.05 mg/ml, 12 hrs
Protocol: as §1, §4
The candidate compounds prepared according to the methods described above were dissolved in PBS, with stock concentration to be 10 mg/ml. These stock solutions were then diluted to proper ranges according to various screening conditions required.
as §3

## NC12CC3CC(CC(C3)C1)C2 [amantadine, 1-Aminoadamantane]
IRES of HCV
  effects on IRES of HCV: no effects
IRES of EMCV; Cardiovirus A, COS-1, read-out: calculated IC50 for inhibition of IRES-dependent translation of EMCV
  IC50: ~45 µg/mL (≈ 298 µM)
IRES of EMCV; Cardiovirus A, COS-1, read-out: inhibition of IRES-dependent translation activity
  inhibition at 250 µg/mL: ~80%
IRES of EMCV; dose of about 0.05 mg/ml (FIG. 5B)
  gene inhibition (EMCV-IRES mediated gene expression): 20%
IRES of EMCV; dose of about 0.25 mg/ml (FIG. 5B)
  gene inhibition (EMCV-IRES mediated gene expression): 80%
IRES of EMCV; pGS-EMCV transfected cells, 0.01 mg/ml to 0.25 mg/ml (FIG. 4B)
  effect on SEAP activities: inhibits SEAP activities
EV-71
  IC50: ~8820 µg/mL (≈ 58300 µM)
[1]; 0.25 mg/ml, pGS-EV71 cells (FIG. 3)
  effect on CAP-dependent translation activity: relatively no effect
[1]; pGS-EV71 transfected cells, 0.01 mg/ml to 0.25 mg/ml (FIG. 3A)
  effect on β-gal activities: little or no effect
[2]; 0.25 mg/ml, pGS-EMCV cells (FIG. 4)
  effect on CAP-dependent translation activity: relatively no effect
[2]; pGS-EMCV transfected cells, 0.01 mg/ml to 0.25 mg/ml (FIG. 4A)
  effect on β-gal activities: little or no effect
IRES of EV71
  selective inhibition on IRES-dependent translation without affecting CAP-dependent translation (screening, FIG. 2): selective inhibition on IRES-dependent translation without affecting CAP-dependent translation
IRES of EV71; Enterovirus A, EV71, COS-1, read-out: calculated IC50 for inhibition of IRES-dependent translation of EV71
  IC50: ~55 µg/mL (≈ 364 µM)
IRES of EV71; Enterovirus A, EV71, COS-1, read-out: inhibition of IRES-dependent translation activity
  inhibition at 250 µg/mL: ~80%
IRES of EV71; dose of about 0.01 mg/ml (FIG. 5A)
  gene inhibition (EV71-IRES mediated gene expression): 20%
IRES of EV71; dose of about 0.25 mg/ml (FIG. 5A)
  gene inhibition (EV71-IRES mediated gene expression): 80%
IRES of EV71; pGS-EV71 transfected cells, 0.01 mg/ml to 0.25 mg/ml (FIG. 3B)
  effect on SEAP activities: inhibits SEAP activities

## Cc1cn([C@H]2C=C[C@@H](CO)O2)c(=O)[nH]c1=O [stavudine]
IRES of EV71
  selective inhibition on IRES-dependent translation without affecting CAP-dependent translation (screening, FIG. 2): only amantadine demonstrates selective inhibition
